Measured values reported in US20140296146A1, “Thermostable Inhibitors of Activation of the Blood Clotting System Through Contact with Foreign Surfaces” (Synapse B.V., priority 2011, published 2014).

T1: h-FXIIa (Homo sapiens, UniProt P00748)
T1 construct: purchased Enzyme Research Laboratories FXIIa 1212A
T1 sequence (P00748 373-615 limits assumed): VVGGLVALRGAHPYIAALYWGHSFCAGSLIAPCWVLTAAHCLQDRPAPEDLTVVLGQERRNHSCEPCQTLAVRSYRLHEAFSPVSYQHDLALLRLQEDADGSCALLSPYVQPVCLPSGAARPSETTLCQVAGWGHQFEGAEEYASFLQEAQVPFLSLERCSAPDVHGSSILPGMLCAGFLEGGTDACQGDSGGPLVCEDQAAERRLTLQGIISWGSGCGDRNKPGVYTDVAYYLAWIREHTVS
T1 sequence (P00748 20-372 partner limits assumed): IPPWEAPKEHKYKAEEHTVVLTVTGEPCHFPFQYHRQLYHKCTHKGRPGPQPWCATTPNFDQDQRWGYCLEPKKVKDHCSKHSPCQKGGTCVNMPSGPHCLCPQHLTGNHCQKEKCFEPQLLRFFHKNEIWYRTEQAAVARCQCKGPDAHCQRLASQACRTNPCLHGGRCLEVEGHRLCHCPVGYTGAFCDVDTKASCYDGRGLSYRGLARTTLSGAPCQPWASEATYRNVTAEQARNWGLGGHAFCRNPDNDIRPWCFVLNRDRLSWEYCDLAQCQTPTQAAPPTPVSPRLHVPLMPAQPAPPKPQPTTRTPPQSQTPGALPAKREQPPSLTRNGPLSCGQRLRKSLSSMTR

T2: h-FXIIa (human, UniProt P00748 20-615)
T2 construct: also called factor XIIa
T2 sequence (looked up): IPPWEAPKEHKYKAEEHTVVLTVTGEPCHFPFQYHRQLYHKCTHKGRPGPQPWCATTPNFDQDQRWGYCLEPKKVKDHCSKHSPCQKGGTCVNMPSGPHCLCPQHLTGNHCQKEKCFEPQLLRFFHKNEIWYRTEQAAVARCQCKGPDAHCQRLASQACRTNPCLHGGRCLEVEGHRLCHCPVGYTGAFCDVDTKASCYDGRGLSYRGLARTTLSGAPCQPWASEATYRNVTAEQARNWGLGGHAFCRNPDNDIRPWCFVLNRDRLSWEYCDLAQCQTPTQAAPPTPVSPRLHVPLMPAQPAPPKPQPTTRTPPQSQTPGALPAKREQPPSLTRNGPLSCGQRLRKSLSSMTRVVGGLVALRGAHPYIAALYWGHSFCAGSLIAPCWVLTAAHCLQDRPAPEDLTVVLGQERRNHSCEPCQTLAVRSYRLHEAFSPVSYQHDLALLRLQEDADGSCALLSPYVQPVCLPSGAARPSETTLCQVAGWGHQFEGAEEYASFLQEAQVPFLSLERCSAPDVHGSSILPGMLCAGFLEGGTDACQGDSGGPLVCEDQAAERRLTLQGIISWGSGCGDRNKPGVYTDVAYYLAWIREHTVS

B1: Corn trypsin inhibitor (other, UniProt P01088 29-138, looked up)
chain: SAGTSCVPGWAIPHNPLPSCRWYVTSRTCGIGPRLPWPELKRRCCRELADIPAYCRCTALSILMDGAIPPGPDAQLEGRLEDLPGCPREVQRGFAATLVTEAECNLATIS
notes: also called CTI

Experiments:
[1] = TICA1 Ala-scan with intact disulfides, activity vs TICA1; details: single amino acid substituted by alanine
From the text: Every single amino acid was substituted by alanine except for cysteine. […] See also FIG. 6.

[2] = TICA1: dependence of activity on disulfides (FIG. 5); details: relative to TICA1 with 3 disulfides = 100%
From the text: FIG. 5: Thermostable Inhibitor of Coagulation Activation (TICA1): Dependence on Disulfides.

[3] = target: T1, h-FXIIa; test: Effect of inhibitors on hydrolysis of S2302 by h-FXIIa; type: biochemical
Method: Materials • S2302 From Chromogenic, lot # N0398718 SEQ0860, exp. date 2012-07. Water added on 7 Oct. […] On 3 Aug. […] Product code FXIIa 1212A, lot #FXIIa 2520PL. Bottle with 0.5 mg was reconstituted with 370 μl pure water. […] Buffer 4 mM NaAc, 150 mM NaCl (pH 5.3). Preparation was divided into 20 μl amounts and frozen at −80° C. • Hepes735 140 mM NaCl, 20 mM Hepes, 0.02% NaN3 (pH 7.35). • BSA5 Hepes735+5 mg/ml BSA. • CTI Prepared on 17 Dec. 2004, 0.141 mg/ml, i.e. 0.141/12028=11.7*10^−6 M (11.7 μM). One portion was thawed and divided into 3 parts. Part 1 was frozen at −80° C.; part 2 was kept at RT; and part 3 was incubated 30 min at 95° C. and then kept at RT.
(§1) Stock FXIIa was diluted 700× in BSA5. The inhibitor was diluted in BSA5 as indicated. Wells contained 70 μl diluted FXIIa (5 nM final), 70 μl inhibitor and 20 μl S2302 (475 or 462.5 μM final). The reaction was started after 5 min heating on the heating plate with S2302. Filters 405 nm and 490 nm reference. Found mΔA/min was multiplied by 2.14 to get the figure for a 1 cm path.
The residual activity (V) was fitted against the PTI concentration with equation:
V=(E+(sqrt(Ê2+2*E*(Ki−I)+Î2+2*I*Ki+Kî2)−E−I−Ki)/2)*kcat*S/(Km+S)
(§2) in which E=[FXIIa], Ki is the dissociation constant, I=[Inhibitor], kcat and Km are Michaelis constants and S=[S2302].

[4] = target: T2, h-FXIIa; test: S2302 hydrolysis by h-FXIIa (5.01 nM); inhibitor kept at -80° C.
Method: as §1, with “ΔmA/min” for “mΔA/min”

[5] = test system: contact activation; test: Clotting time of blood taken on inhibitor only, without Ca2+ binding substance; details: tube heated for one hour in boiling water; 10 μg/ml
Method: Indeed STI inhibited contact activation so well that blood taken on a solution not containing sodium citrate or another substance that binds Ca^2+ ions but only STI (10 μg/ml) remained fluid for over 45 minutes, under conditions where in absence of STI it would clot in less than 5 min. […] CTI under similar circumstances, at 10 μg/ml, lost much of its activity because a clotting time of <15 min. was observed.

[6] = target: T2, h-FXIIa; test: S2302 hydrolysis by h-FXIIa (5.01 nM); inhibitor at RT during 72 hrs
Method: as §1, with “ΔmA/min” for “mΔA/min”

[7] = target: T2, h-FXIIa; test: S2302 hydrolysis by h-FXIIa (5.01 nM); inhibitor 30 min 95° C., against -80° C.
Method: as §1, with “ΔmA/min” for “mΔA/min”

[8] = target: T2, h-FXIIa; test: S2302 hydrolysis by h-FXIIa (5 nM), fit of residual activity; dissociation constant of the complex
Method: as §1, §2

Row | Molecule | Activity vs TICA1 [1] [%] | activity [2] [%] | Ki ([3]; Ki, Table 2, inhibitory activity of different polypeptides) [nM] | Ki ([3]; ki F.XIIa (ng/ml), After heating) [nM] | Ki ([3]; ki F.XIIa (ng/ml), Before heating) [nM] | Ki [4] [nM] | clotting time of blood after sterilization of the tube containing inhibitor [5] [min] | Ki [6] [nM] | Res. Act. (%) [7] [%] | Ki [8] [nM]
1 | CC[C@H](C)[C@@H]1NC(=O)[C@H](CCCNC(=N)N)NC(=O)[C@@H]2CCCN2C(=O)[C@@H](NC(=O)[C@@H](NC(=O)[C@@H](N)CCCNC(=N)N)C(C)C)CSSC[C@@H]2NC(=O)[C@H](CCC(=O)O)NC(=O)[C@H](C)NC(=O)[C@H](CC(C)C)NC(=O)[C@@H]3CSSC[C@@H](C(=O)NCC(=O)O)NC(=O)[C@H](Cc4ccc(O)cc4)NC(=O)CNC(=O)[C@H](Cc4c[nH]cn4)NC(=O)[C@H](CCC(=O)O)NC(=O)[C@H](CC(C)C)NC(=O)[C@H](CSSC[C@H](NC(=O)[C@H](CCCCN)NC(=O)[C@H](CCSC)NC(=O)[C@H](CC(C)C)NC1=O)C(=O)N[C@@H](CCCCN)C(=O)N[C@@H](CCCCN)C(=O)N[C@@H](CC(=O)O)C(=O)N[C@@H](CO)C(=O)N[C@@H](CC(=O)O)C(=O)N3)NC(=O)[C@H](C(C)C)NC2=O [TICA1] | 100 | 100 | 25.5 | 26 | 25.4 | – | – | – | – | –
2 | B1 | – | – | – | – | – | 3.59 | < 15 | 4.19 | 70 | 2.9
